Results reported in ChEMBL document CHEMBL1201862, “PubChem BioAssay data set” (2004).
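Each compound was tested at five concentrations against cells in 96-well plates for 48 hours. GI50: concentration for 50% inhibition of growth.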 Calls of active or inactive are those of the source. Rule as the data show it: active = GI50 up to about 1.1 µM and inactive = higher.

How the values were obtained:
Assay in all cases: growth of human tumour cells (NCI), 48 h
BT-549 = system: BT-549
SF-539 = system: SF-539
SK-MEL-2 = system: SK-MEL-2
786-0 = system: 786-0
OVCAR-3 = system: OVCAR-3
SN12C = system: SN12C
OVCAR-4 = system: OVCAR-4
OVCAR-5 = system: OVCAR-5
SNB-19 = system: SNB-19
OVCAR-8 = system: OVCAR-8
A498 = system: A498
RXF 393 = system: RXF 393
HCT-15 = system: HCT-15
U-251 = system: U-251
A549 = system: A549
MDA-N = system: MDA-N
HCC 2998 = system: HCC 2998
NCI-H23 = system: NCI-H23
HOP-92 = system: HOP-92
RPMI-8226 = system: RPMI-8226
LOX IMVI = system: LOX IMVI
MDA-MB-231 = system: MDA-MB-231
ACHN = system: ACHN
Hs-578T = system: Hs-578T
K562 = system: K562
SF-268 = system: SF-268
MOLT-4 = system: MOLT-4
TK-10 = system: TK-10
HOP-62 = system: HOP-62
CCRF-CEM = system: CCRF-CEM
CAKI-1 = system: CAKI-1
KM12 = system: KM12
NCI-H460 = system: NCI-H460
UACC-257 = system: UACC-257
SK-MEL-28 = system: SK-MEL-28
SF-295 = system: SF-295
MDA-MB-435 = system: MDA-MB-435
T47D = system: T47D
HCT-116 = system: HCT-116
M14 = system: M14
SW-620 = system: SW-620
DU-145 = system: DU-145
MCF7 = system: MCF7
EKVX = system: EKVX
NCI-H226 = system: NCI-H226
COLO 205 = system: COLO 205
SK-MEL-5 = system: SK-MEL-5
UO-31 = system: UO-31
SK-OV-3 = system: SK-OV-3
NCI/ADR-RES = system: NCI/ADR-RES
SR = system: SR
UACC-62 = system: UACC-62
HT-29 = system: HT-29
HL-60 = system: HL-60
Malme-3M = system: Malme-3M
PC-3 = system: PC-3
IGROV-1 = system: IGROV-1
NCI-H522 = system: NCI-H522
SNB-75 = system: SNB-75

SMILES: NS(=O)(=O)c1nnc(NS(=O)(=O)c2ccc(F)cc2)s1
- GI50 (BT-549): > 100 µM (inactive)
- GI50 (SF-539): > 100 µM (inactive)
- GI50 (SK-MEL-2): > 100 µM (inactive)
- GI50 (786-0): > 100 µM (inactive)
- GI50 (OVCAR-3): > 100 µM (inactive)
- GI50 (SN12C): > 100 µM (inactive)
- GI50 (OVCAR-4): > 100 µM (inactive)
- GI50 (OVCAR-5): > 100 µM (inactive)
- GI50 (SNB-19): > 100 µM (inactive)
- GI50 (OVCAR-8): > 100 µM (inactive)
- GI50 (A498): > 100 µM (inactive)
- GI50 (RXF 393): > 100 µM (inactive)
- GI50 (HCT-15): > 100 µM
- GI50 (U-251): > 100 µM (inactive)
- GI50 (A549): > 100 µM (inactive)
- GI50 (MDA-N): > 100 µM (inactive)
- GI50 (HCC 2998): > 100 µM (inactive)
- GI50 (NCI-H23): > 100 µM (inactive)
- GI50 (HOP-92): > 100 µM (inactive)
- GI50 (RPMI-8226): > 100 µM (inactive)
- GI50 (LOX IMVI): > 100 µM (inactive)
- GI50 (MDA-MB-231): > 100 µM (inactive)
- GI50 (ACHN): > 100 µM (inactive)
- GI50 (Hs-578T): > 100 µM (inactive)
- GI50 (K562): > 100 µM (inactive)
- GI50 (SF-268): > 100 µM (inactive)
- GI50 (MOLT-4): > 100 µM (inactive)
- GI50 (TK-10): > 100 µM (inactive)
- GI50 (HOP-62): > 100 µM (inactive)
- GI50 (CCRF-CEM): > 100 µM (inactive)
- GI50 (CAKI-1): > 100 µM (inactive)
- GI50 (KM12): > 100 µM (inactive)
- GI50 (NCI-H460): > 100 µM (inactive)
- GI50 (UACC-257): > 100 µM (inactive)
- GI50 (SK-MEL-28): > 100 µM (inactive)
- GI50 (SF-295): > 100 µM (inactive)
- GI50 (MDA-MB-435): > 100 µM (inactive)
- GI50 (T47D): > 100 µM (inactive)
- GI50 (HCT-116): > 100 µM (inactive)
- GI50 (M14): > 100 µM (inactive)
- GI50 (SW-620): > 100 µM (inactive)
- GI50 (DU-145): > 100 µM (inactive)
- GI50 (MCF7): > 100 µM (inactive)
- GI50 (EKVX): > 100 µM (inactive)
- GI50 (NCI-H226): > 100 µM (inactive)
- GI50 (COLO 205): > 100 µM (inactive)
- GI50 (SK-MEL-5): > 100 µM (inactive)
- GI50 (UO-31): > 100 µM (inactive)
- GI50 (SK-OV-3): > 100 µM (inactive)
- GI50 (NCI/ADR-RES): > 100 µM (inactive)
- GI50 (SR): > 100 µM (inactive)
- GI50 (UACC-62): > 100 µM (inactive)

SMILES: CCC/N=C1\S/C(=C/c2ccc(OC)c(OC)c2)C(=O)N1c1ccccc1
- GI50 (BT-549): 74.8 µM (inactive)
- GI50 (SF-539): 7.91 µM (inactive)
- GI50 (SK-MEL-2): 31.8 µM (inactive)
- GI50 (786-0): 13.1 µM (inactive)
- GI50 (OVCAR-3): 12.6 µM (inactive)
- GI50 (SN12C): 54.8 µM (inactive)
- GI50 (HT-29): > 100 µM (inactive)
- GI50 (OVCAR-4): 16 µM (inactive)
- GI50 (OVCAR-5): 44.9 µM (inactive)
- GI50 (SNB-19): 17.8 µM (inactive)
- GI50 (OVCAR-8): 82.2 µM (inactive)
- GI50 (A498): 21.5 µM (inactive)
- GI50 (HCT-15): > 100 µM
- GI50 (U-251): 12.6 µM (inactive)
- GI50 (A549): 42.1 µM (inactive)
- GI50 (MDA-N): > 100 µM (inactive)
- GI50 (HCC 2998): > 100 µM (inactive)
- GI50 (NCI-H23): 76.7 µM (inactive)
- GI50 (HOP-92): 33.1 µM (inactive)
- GI50 (RPMI-8226): 43.2 µM (inactive)
- GI50 (LOX IMVI): > 100 µM (inactive)
- GI50 (MDA-MB-231): 20.6 µM (inactive)
- GI50 (ACHN): 42.8 µM (inactive)
- GI50 (Hs-578T): 9.1 µM (inactive)
- GI50 (K562): > 100 µM (inactive)
- GI50 (SF-268): 15.1 µM (inactive)
- GI50 (MOLT-4): 33.9 µM (inactive)
- GI50 (HL-60): 59.8 µM (inactive)
- GI50 (TK-10): 22.8 µM (inactive)
- GI50 (HOP-62): 2.84 µM (inactive)
- GI50 (CCRF-CEM): 58.7 µM (inactive)
- GI50 (Malme-3M): > 100 µM (inactive)
- GI50 (CAKI-1): 44.5 µM (inactive)
- GI50 (KM12): > 100 µM (inactive)
- GI50 (NCI-H460): 61 µM (inactive)
- GI50 (UACC-257): 76.7 µM (inactive)
- GI50 (SK-MEL-28): > 100 µM (inactive)
- GI50 (SF-295): 11.3 µM (inactive)
- GI50 (PC-3): 43.8 µM (inactive)
- GI50 (MDA-MB-435): > 100 µM (inactive)
- GI50 (T47D): > 100 µM (inactive)
- GI50 (HCT-116): 24 µM (inactive)
- GI50 (M14): > 100 µM (inactive)
- GI50 (IGROV-1): 80.2 µM (inactive)
- GI50 (NCI-H522): 40.6 µM (inactive)
- GI50 (SW-620): > 100 µM (inactive)
- GI50 (MCF7): > 100 µM (inactive)
- GI50 (EKVX): 15.8 µM (inactive)
- GI50 (NCI-H226): 41.8 µM (inactive)
- GI50 (COLO 205): > 100 µM (inactive)
- GI50 (SK-MEL-5): 37.6 µM (inactive)
- GI50 (UO-31): 32.5 µM (inactive)
- GI50 (SK-OV-3): 11.2 µM (inactive)
- GI50 (NCI/ADR-RES): 93.1 µM (inactive)
- GI50 (SR): 51.8 µM (inactive)
- GI50 (UACC-62): 37 µM (inactive)

SMILES: Cc1csc2nc3[nH]ncc3c(=O)n12
- GI50 (BT-549): > 100 µM (inactive)
- GI50 (SF-539): > 100 µM (inactive)
- GI50 (SK-MEL-2): > 100 µM (inactive)
- GI50 (786-0): > 100 µM (inactive)
- GI50 (OVCAR-3): > 100 µM (inactive)
- GI50 (SN12C): > 100 µM (inactive)
- GI50 (HT-29): > 100 µM (inactive)
- GI50 (OVCAR-4): > 100 µM (inactive)
- GI50 (OVCAR-5): > 100 µM (inactive)
- GI50 (SNB-19): > 100 µM (inactive)
- GI50 (OVCAR-8): > 100 µM (inactive)
- GI50 (HCT-15): > 100 µM
- GI50 (U-251): > 100 µM (inactive)
- GI50 (A549): > 100 µM (inactive)
- GI50 (MDA-N): > 100 µM (inactive)
- GI50 (HCC 2998): > 100 µM (inactive)
- GI50 (NCI-H23): > 100 µM (inactive)
- GI50 (RPMI-8226): > 100 µM (inactive)
- GI50 (LOX IMVI): > 100 µM (inactive)
- GI50 (MDA-MB-231): > 100 µM (inactive)
- GI50 (ACHN): > 100 µM (inactive)
- GI50 (Hs-578T): 28.4 µM (inactive)
- GI50 (K562): > 100 µM (inactive)
- GI50 (SF-268): > 100 µM (inactive)
- GI50 (MOLT-4): > 100 µM (inactive)
- GI50 (SNB-75): 61 µM (inactive)
- GI50 (HOP-62): > 100 µM (inactive)
- GI50 (CCRF-CEM): > 100 µM (inactive)
- GI50 (Malme-3M): > 100 µM (inactive)
- GI50 (CAKI-1): > 100 µM (inactive)
- GI50 (KM12): > 100 µM (inactive)
- GI50 (NCI-H460): > 100 µM (inactive)
- GI50 (UACC-257): > 100 µM (inactive)
- GI50 (SK-MEL-28): > 100 µM (inactive)
- GI50 (SF-295): > 100 µM (inactive)
- GI50 (PC-3): > 100 µM (inactive)
- GI50 (MDA-MB-435): > 100 µM (inactive)
- GI50 (T47D): > 100 µM (inactive)
- GI50 (HCT-116): > 100 µM (inactive)
- GI50 (M14): > 100 µM (inactive)
- GI50 (IGROV-1): > 100 µM (inactive)
- GI50 (NCI-H522): > 100 µM (inactive)
- GI50 (SW-620): > 100 µM (inactive)
- GI50 (MCF7): > 100 µM (inactive)
- GI50 (EKVX): > 100 µM (inactive)
- GI50 (NCI-H226): 40.6 µM (inactive)
- GI50 (COLO 205): > 100 µM (inactive)
- GI50 (SK-MEL-5): > 100 µM (inactive)
- GI50 (UO-31): 81.8 µM (inactive)
- GI50 (SK-OV-3): > 100 µM (inactive)
- GI50 (NCI/ADR-RES): 66.8 µM (inactive)
- GI50 (SR): > 100 µM (inactive)
- GI50 (UACC-62): > 100 µM (inactive)
